According to patent US12648965B2, “Use of bovine spleen peptide powder in improving sleep, preventing or treating depression, or improving intestinal function” (BEIJING NO. 1 BIO-TECHNOLOGY DEVELOPMENT CO., LTD., priority 2022, dated 2026):

Key:
[1] = test system: zebrafish model of insomnia established by PTZ; test: Evaluation of the efficacy in improving sleep, PTZ zebrafish model of insomnia; type: in vivo; conditions: 125 μg/mL, 24 h, n = 10
Description: In the present application, a state in which zebrafish is in a speed of movement of greater than 20 mm/s is considered to be an awake state, a state in which the speed of movement is less than 4 mm/s is considered to be a sleep state, and a state in which the speed of movement is 4-20 mm/s corresponds to sleep latency.
As used herein, the term “amount of wake after sleep onset” refers to the distance of movements during which the speed of movement is greater than 20 mm/s.
As used herein, the term “time of wake after sleep onset” refers to the time of movements during which the speed of movement is greater than 20 mm/s.
The 5 dpf wild type zebrafish of line AB were randomly selected and placed in a 6-well plate, and for the experimental groups 30 zebrafish were treated in each well. The positive control melatonin was in a concentration of 125 μg/mL. Meanwhile, the normal control group (fed in a conventional manner) and the model control group (i.e., the zebrafish model of insomnia established by PTZ) were set, with a capacity of 3 mL per well. […] The zebrafish were analyzed for amount of wake after sleep onset and time of wake after sleep onset. The bovine spleen peptide powder was evaluated for its efficacy in sleep improvement through statistical analysis results of the above indicators. The statistical results were expressed as “mean±standard deviation”.

[2] = test system: zebrafish model of gastrointestinal mucosal injury (TNBS); test: Evaluation of regulatory efficacy on intestinal goblet cells, TNBS zebrafish model; type: in vivo; conditions: 15.0 μg/mL, 2 days after TNBS, n = 10
Description: The 3 dpf wild type zebrafish of line AB were randomly selected and placed in a 6-well plate, and for the experimental groups 30 zebrafish were treated in each well. Except for the normal control group (fed in a conventional manner), all the other experimental groups were given aqueous TNBS to establish a zebrafish model of gastrointestinal mucosal injury. After a 2-day treatment at 28° C., TNBS was removed, and the bovine spleen peptide powder dissolved in water was given at a concentration as shown in Table 9 below. The positive control prednisone was at a concentration of 15.0 μg/mL. Meanwhile, a normal control group and a model control group (i.e., a zebrafish model of gastrointestinal mucosal injury model established by TNBS) were set, with a capacity of 3 mL per well. After a further 2-day treatment at 28° C., 10 zebrafish from each experimental group were randomly selected and placed under the dissecting microscope for photographing. Data were acquired by the NIS-Elements D 3.20 advanced image processing software. The number of goblet cells in the intestine of zebrafish was analyzed. Statistical results were used to evaluate the regulatory efficacy of the goblet cells in the intestine of the zebrafish. The statistical results were expressed as “mean±standard deviation”.

Row | SMILES | Amount of wake after sleep onset (mean ± standard deviation) [1] [mm] | Time of wake after sleep onset (mean ± standard deviation) [1] [s] | Number of intestinal goblet cells (mean ± standard deviation) [2] [count]
1 | COc1ccc2[nH]cc(CCNC(C)=O)c2c1 [Melatonin, melatonin] | 346 ± 35.3 | 8.18 ± 0.795 | –
2 | C[C@]12C=CC(=O)C=C1CC[C@@H]1[C@@H]2C(=O)C[C@@]2(C)[C@H]1CC[C@]2(O)C(=O)CO [Prednisone, prednisone] | – | – | 47.2 ± 1.89
